Results reported in PMC7727793, “Aggregation Behavior, Antibacterial Activity and Biocompatibility of Catanionic Assemblies Based on Amino Acid-Derived Surfactants” (International Journal of Molecular Sciences, 2020).

Legend:
[1] = Surface tension, hanging drop tensiometer; assay type: physicochemical; conditions: 25 °C; for Surface tension (γ) at CMC: estimated error 1 mNm^−1; for CMC obtained by surface tension (CMCγ): estimated error 10%; for Area per molecule (Am): Gibbs adsorption isotherm using n = 1, estimated error 15%
Procedure: Surface tension was measured at 25 °C using a homemade hanging drop tensiometer. Samples were hanged from a straight-cut Teflon tube and the size and shape were obtained from pictures as a function of time. Surface tension was obtained from fitting the drop profile to the appropriate Young-Laplace equations. See Sorrenti et al. for more details. From a concentrated clear solution, successive dilutions were made to cover the adequate range of surface tension changes. The surface tension of […]14 was measured in three pH conditions: (a) unbuffered, using water as solvent, (b) buffered at pH = 2, using 10 mM HCl solution to prepare the concentrated sample and their dilutions and (c) buffered at pH = 12, using 10 mM […] to prepare the concentrated solution and their dilutions.

[2] = Pyrene fluorescence (II/IIII ratio) CMC determination; assay type: physicochemical; conditions: pyrene probe, 25 °C; estimated error 10%
Procedure: Fluorescence measurements were carried out using a Shimadzu RF 540 spectrofluorometer (Shimadzu, Kyoto, Japan). Pyrene (Sigma-Aldrich, San Luis, MO, USA) was utilized as a fluorescence probe at 25 °C. From a 5 mM solution of catanionic formulations prepared in a pyrene aqueous solution (10^−6 M), different dilutions were prepared. The fluorescence emission spectra of these binary mixtures were acquired from 340 to 450 nm after excitation at 332 nm. The ratio of the first to the third vibronic peaks (II/IIII) in the emission spectra of pyrene is sensitive to the polarity of the microenvironment and the CMC can be calculated from plots of II/IIII as a function of surfactant concentration.

[3] = tested on: 3T3 cell line; experiment: NRU cell viability assay; assay type: cell-based, murine; conditions: 3T3, NRU, 24 h
Procedure: (§1) The murine Swiss albino fibroblast (3T3), the squamous carcinoma (A431), the immortal human keratinocyte (HaCaT) and the human epithelial carcinoma (HeLa) cell lines were obtained from Celltec UB. Cells were grown in Dulbecco’s Modified Eagle’s Medium (DMEM) (4.5 g/L glucose) supplemented with 10% (v/v) fetal bovine serum (FBS), 1% (v/v) L-glutamine solution (200 mM) and 1% (v/v) penicillin-streptomycin solution (10,000 U/mL penicillin and 10 mg/mL streptomycin) at 37 °C and 5% CO2 (CO2 Incubator Nuaire, Plymouth, MN, USA). All the biological materials were purchased from Lonza (Verviers, Belgium). Cells were cultured in 75 cm^2 culture flasks (TPP, Trasadingen, Switzerland) and were routinely split using trypsin-EDTA (ethylenediaminetetraacetate) solution (170,000 U/L trypsin and 0.2 g/L EDTA) (Lonza, Verviers, Belgium) when cells are approximately 80% confluent. 3T3 and HaCaT cells (1 × 10^5 cells/ mL) and HeLa and A431 cells (5 × 10^4 cells/mL) were grown at the defined densities into the central 60 wells of a 96-well plate. Cells were incubated for 24 h under 5% CO2 at 37 °C. […] Agitation, determination of the absorbance of the extracted solution and effect of each treatment in comparison with control cells were analogous of those described in the case of the MTT method.

[4] = tested on: A431 cell line; experiment: NRU cell viability assay; assay type: cell-based; conditions: Homo sapiens, A-431, 24 h
Procedure: as §1

[5] = tested on: HeLa cell line; experiment: NRU cell viability assay; assay type: cell-based; conditions: Homo sapiens, 24 h
Procedure: as §1

[6] = design: method as in PMID 17319702; conditions: cited from earlier work
[7] = assay type: physicochemical
Procedure: To check whether there was a pKa shift, we titrated the surfactant at a concentration below the CMC. The titration curve is shown in Supplementary Figure S1, where 10 mL of 1.5 mM surfactant was titrated with 3 mM NaOH.
The titration was followed using a glass electrode Orion coupled with an Orion Versastar reader (Thermo Scientific). […] 16% carbonation was determined. using Equation (1), which is derived making use of the charge and mass balances together with the acid constants of H2CO3, pK1CO2 = 6.35, pK2CO2 = 10.25 and water dissociation constant pKw = 14. (1) V = −V0Ca10^pKa−pH/1+10^pKa−pH−V0Ca+V0(1/10^pH−10^pH+pKw)/cb(1−α(1−1/1+10^pH+pK1CO2+10^2pH+pK2CO2))+(1/10^pH−10^pH+pKw) where V0 is the titrated solution initial volume, L is concentration, pKa is the searched acid constant, pkw is the minus logarithm of the water dissociation constant, Cb is the titrant concentration, α is the fraction of carbonated titrant, pK1CO2 is the first dissociation constant of CO2 and pK2CO2 is the second dissociation constant of CO2.

[8] = tested on: Klebsiella pneumoniae ATCC 13883; experiment: Broth microdilution MIC; assay type: cell-based; conditions: 24 h, 37 °C, total surfactant concentration
[9] = tested on: Escherichia coli ATCC 25922; experiment: Broth microdilution MIC; assay type: cell-based; conditions: 24 h, 37 °C, total surfactant concentration
[10] = tested on: erythrocytes; assay type: cell-based, rabbit
Procedure: The erythrocytes, taken from rabbit blood samples, were washed three times in PBS (pH 7.4) and resuspended in PBS at a cell density of 8 × 10^9 cells/mL. The hemolytic activity of the catanionic formulations used in this work was carried out using the procedure described by Pape et al. with minor modifications. A series of different volumes of a concentrated solution (1000 μM for the general case and 5000 μM for the 20:80 and cholesterol-containing formulations) of the catanionic formulation (10–80 μL) were placed in polystyrene tubes containing 25 μL of the prepared erythrocyte suspension and PBS buffer was added to each tube to a total volume of 1 mL. The resulted solutions were incubated at room temperature and shaken for 10 min and the tubes were then centrifuged (5 min at 10,000 rpm). The hemolysis (%) was calculated by comparing the absorbance (540 nm) of the supernatant of the solutions with that of Milli-Q water (control 100% hemolysis) and PBS buffer solution (control, 0% hemolysis).

[11] = 10 mM NaCl CO2 saturated solution

| Molecule | Surface tension (γ) at CMC [1] [mNm^−1] | CMC obtained by surface tension (CMCγ) [1] | Area per molecule (Am) [1] [nm^2] | CMC obtained by Fluorescence (CMCF) [2] [mM] | IC50 ([3]; Mus musculus, NIH3T3) [µM] | IC50 [4] [µM] | IC50 [5] [µM] | Concentration at which surface tension stabilizes [6, 11] | Limiting surface tension [6, 11] | Surface tension at CMC ([6]; basic conditions) | CMC ([6]; basic media) [mM] | pKa [7] | pKa calculated from the concentration and the initial solution pH [7] | pKa shift versus literature value for the histidine secondary amine [7] | MIC [8] [µM] | MIC [9] [µM] | Hemolytic activity [10] | IC50 [3] [µM] |
| --- | --- | --- | --- | --- | --- | --- | --- | --- | --- | --- | --- | --- | --- | --- | --- | --- | --- | --- |
| CCCCCCCCCCCCCC(=O)O [Sodium myristate, sodium myristate] | 24 | 5.0 ^7 mM | 1.0 | 0.90 | > 50 | > 50 | > 50 | around 0.3 mM | about 25 mNm^−1 | about 40 mNm^−1 | 3 | – | – | – | – | – | – | – |
| N(π),N(τ)-bis(methyl)-L-Histidine tetradecyl amide [DMHNHC14] | 33 | 5.2 mM | 0.57 | 3.8 | – | – | – | – | – | – | – | 5.7-5.9 | 5.4 | about 3.3 units | 113 | 113 | increases with the dose | 26.1 |
